From patent publication US11609221B2, “Method for detecting the presence of a contaminant in a liquid” (priority 2017, dated 2023)
Values after ≈ are worked out from the molar mass of the structure shown.

Experiments:
Daphnia = settings: after 48 h exposure; cited from earlier work
[1] = system: benthic aquatic macroinvertebrates; test: Toximeter locomotor index monitoring of benthic aquatic macroinvertebrates during contamination episodes; assay type: in vivo, Gammarus fossarum, Erpobdella testacea, Radix auricularia; settings: 100 μg·L^−1, contamination episodes of 20-24 h, even after several episodes; FIG. 3
Experimental: For the purposes of the present invention, “locomotor index” corresponds to an average distance calculated according to the study context (field or laboratory) over the 10% to 80% of the lowest values of individual distances travelled. The locomotor index is the average of these shortest distances. This locomotor index is calculated on an integration time step that can be chosen between 2 and 120 minutes. The values of distances travelled are squared before the index is calculated, so the locomotive index is expressed in mm^2/unit of time.
In the examples, only benthic aquatic macroinvertebrates calibrated in terms of size, sex, non-parasitized, from a single population and housing for two weeks in the laboratory are shown. The benthic aquatic macroinvertebrates are placed in a cage under camera monitoring where 16 individuals are placed alone in a volume of 50 mL of water.
The cage is made of neutral materials (polypropylene) and without the use of toxic products (no glue). These cages (FIG. 1) are connected to a pre-bubbled, thermo-regulated and filtered liquid supply and then circulate in the chamber that receives the effluent at a flow rate of 6 L/h. […]

For CNC(=O)ON=C(C)SC [methomyl], the “LC50 in Daphnia” value (Daphnia) is given as 0.028 µg/mL (≈ 0.173 µM) and the “time to detect a toxicity of the product (locomotor index)” value [1] is given as ≤ 3 h.
